Drawing on BindingDB's records for patent US11344546 (Recurium Ip Holding, 2022), this text covers Kd for 1 molecule.

For this experiment, the target named is Apoptosis regulator Bcl-2 (Homo sapiens, UniProt P10415). Kind of experiment: Binding Assay.

Each structure is given as a SMILES string.

Apoptosis regulator Bcl-2, sequence (P10415 whole entry): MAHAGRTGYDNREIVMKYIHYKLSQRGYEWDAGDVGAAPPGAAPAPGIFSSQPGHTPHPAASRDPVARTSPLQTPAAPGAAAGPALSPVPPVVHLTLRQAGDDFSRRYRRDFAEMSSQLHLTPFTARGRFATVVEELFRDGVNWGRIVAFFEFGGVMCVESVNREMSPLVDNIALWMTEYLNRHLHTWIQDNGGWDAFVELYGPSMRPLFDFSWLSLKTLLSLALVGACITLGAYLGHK
Method: Table 1: Binding to Bcl-2 proteins Bcl-2, and Bcl-XL was assessed using the Bcl2scan platform: T7 phage strains displaying BCL2 proteins were grown in parallel in 24-well blocks in an E. coli host derived from the BL21 strain. E. coli were grown to log-phase and infected with T7 phage from a frozen stock (multiplicity of infection=0.4) and incubated with shaking at 32° C. until lysis (90-150 minutes). The lysates were centrifuged (5,000×g) and filtered (0.2 μm) to remove cell debris. […] The liganded beads were blocked with excess biotin and washed with blocking buffer (SeaBlock (Pierce), 1% BSA, 0.05% Tween 20, 1 mM DTT) to remove unbound ligand and to reduce non-specific phage binding. […] Test compounds were prepared as 100× stocks in 100% DMSO. Kds were determined using an 11-point 3-fold compound dilution series with one DMSO control point. […] The compounds were then diluted directly into the assays such that the final concentration of DMSO was 0.9%. All reactions performed in polypropylene 384-well plates. Each was a final volume of 0.02 ml.

The molecule `CCC12CC(C3=C(CN4CCN(c5ccc(C(=O)NS(=O)(=O)c6ccc(OCC7(F)CCOCC7)c([N+](=O)O)c6)c(Oc6cnc7[nH]ccc7c6)c5)CC4)CCC(C)(C)C3)(C1)C2` [US11344546, Example 26] returned a Kd below 0.01 µM.
